Test results taken from patent US8598182B2, “Insecticidal pyrimidinyl aryl hyrdrazones” (Dow AgroSciences, LLC., priority 2007, dated 2013).

Assays:
[1] = test system: Corn Earworm (Helicoverpa zea); experiment: Insecticidal diet-surface test for corn earworm; assay type: in vivo; conditions: second-instar corn earworm, 50 ug/cm2 on diet surface, 5 days after treatment, dead insects of 8
Description: (§1) The compounds identified in Table 1 were prepared using the procedures illustrated in the foregoing examples, and the compounds were tested against beet armyworm and corn earworm as follows:
(§2) Insecticidal Test for Corn Earworm (Helicoverpa zea) and Beet Armyworm (Spodoptera exigua).
(§3) To prepare test solution, the test compound was formulated at 2000 ppm solution as 4 mg/2 mL of 9 acetone:1 tap water. 50 μL of the 2000 ppm (equivalent to 50 ug/cm^2 dose on diet surface area) test solution was pipetted upon the surface of 1 mL of lepidopteran diet (Southland Multi-Species Lepidopteran Diet) contained in each of eight wells per insect species (one well=1 replication). A second-instar corn earworm and beet armyworm was placed upon the treated diet in each well once the solvent had air-dried. Trays containing the treated diet and larvae were covered and then held in a growth chamber at 25° C., 50-55% RH, and 16 hr light:8 hr dark for 5 days. Observation were conducted 5 days after treatment and infestation. The number of dead insects of 8 per species per treatment was then determined and the results are given in Table 1 as percent control at a dose of […].
(§4) Keys to the table: Mass spectral data were obtained using liquid chromatography mass spectroscopy (LC-MS). The masses are detected using electrospray ionization (ESI) and reported as Mol Ion (M+H, M−H); AVG LAPHEG 50 refers to activity against beet army worm (Spodoptera exigua) as defined above; AVG HELIZE 50 refers to activity against corn ear worm (Helicoverpa zea) as described above.

[2] = test system: Beet Armyworm (Spodoptera exigua); experiment: Insecticidal diet-surface test for beet armyworm; assay type: in vivo; conditions: second-instar beet armyworm, 50 ug/cm2 on diet surface, 5 days after treatment, dead insects of 8
Description: as §1, §2, §3, §4

Row | SMILES | HELIZE 50 (ug/cm2), percent control [1] [%] | LAPHEG 50 (ug/cm2), percent control [2] [%]
1 | Fc1cc(Nc2ccc(F)c(C(F)(F)F)c2)nc(NN=Cc2ccc(OC(F)(F)F)cc2)n1 [Compound 17] | 100 | 100
2 | Fc1cc(Nc2ccc(F)c(C(F)(F)F)c2)nc(NN=Cc2ccc(OC(F)(F)C(F)F)cc2)n1 [Compound 18] | 100 | 100
3 | Fc1cc(Nc2ccc(OC(F)(F)C(F)F)cc2)nc(NN=Cc2ccc(OC(F)(F)F)cc2)n1 [Compound 19] | 13 | 50
4 | Fc1cc(Nc2ccc(OC(F)(F)C(F)F)cc2)nc(NN=Cc2ccc(OC(F)(F)C(F)F)cc2)n1 [Compound 20] | 25 | 50
5 | OC(c1ccc(Nc2cc(F)nc(NN=Cc3ccc(OC(F)(F)F)cc3)n2)cc1)(C(F)(F)F)C(F)(F)F [Compound 21] | 100 | 100
6 | OC(c1ccc(Nc2cc(F)nc(NN=Cc3ccc(OC(F)(F)C(F)F)cc3)n2)cc1)(C(F)(F)F)C(F)(F)F [Compound 22] | 100 | 100
7 | COc1ccc(/C=N/Nc2nc(Cl)cc(Nc3ccc(F)c(C(F)(F)F)c3)n2)cc1 [Compound 23] | 38 | 50
8 | Fc1ccc(Nc2cc(Cl)nc(N/N=C/c3cccc(Cl)c3)n2)cc1C(F)(F)F [Compound 24] | 100 | 100
9 | Clc1ccc(/C=N/Nc2nc(Cl)cc(Nc3ccc(Cl)cc3)n2)cc1 [Compound 25] | 100 | 75
10 | FC(F)(F)Oc1ccc(/C=N/Nc2nc(Cl)cc(Nc3ccc(Cl)cc3)n2)cc1 [Compound 26] | 100 | 100
11 | Clc1ccc(Nc2cc(Cl)nc(N/N=C/c3ccc(N4CCCCC4)cc3)n2)cc1 [Compound 27] | 100 | 38
12 | Clc1ccc(Nc2cc(Cl)nc(N/N=C/c3cccc(Cl)c3)n2)cc1 [Compound 28] | 50 | 50
13 | COc1ccc(/C=N/Nc2nc(Cl)cc(Nc3ccc(Cl)cc3)n2)cc1 [Compound 29] | 0 | 63
14 | Fc1ccc(Nc2cc(Cl)nc(N/N=C/c3cccc(OC(F)(F)C(F)F)c3)n2)cc1C(F)(F)F [Compound 30] | 13 | 100
15 | FC(F)(F)c1ccc(/C=N/Nc2nc(Cl)cc(Nc3cccc(Cl)c3)n2)cc1 [Compound 31] | 100 | 100
16 | Clc1ccc(/C=N/Nc2nc(Cl)cc(Nc3cccc(Cl)c3)n2)cc1 [Compound 32] | 88 | 0
17 | N#Cc1ccc(/C=N/Nc2nc(Cl)cc(Nc3cccc(Cl)c3)n2)cc1 [Compound 33] | 13 | 13
18 | Clc1cc(Nc2cccc(Br)c2)nc(N/N=C/c2ccccc2Cl)n1 [Compound 34] | 13 | 25
19 | Clc1cccc(/C=N/Nc2nc(Cl)cc(Nc3cccc(Br)c3)n2)c1 [Compound 35] | 25 | 0
20 | Clc1ccc(/C=N/Nc2nc(Cl)cc(Nc3cccc(Br)c3)n2)cc1 [Compound 36] | 38 | 0
21 | FC(F)(F)Oc1ccc(/C=N/Nc2nc(Cl)cc(Nc3cccc(Br)c3)n2)cc1 [Compound 37] | 100 | 100
22 | Clc1cccc(/C=N/Nc2nc(Cl)cc(Nc3cccc(Cl)c3)n2)c1 [Compound 38] | 0 | 25

Row | SMILES | HELIZE 50 (ug/cm2), percent control [1] [%] | LAPHEG 50 (ug/cm2), percent control [2] [%]
23 | FC(F)(F)Oc1ccc(/C=N/Nc2nc(Cl)cc(Nc3cccc(Cl)c3)n2)cc1 [Compound 39] | 100 | 100
24 | FC(F)(F)c1ccc(/C=N/Nc2nc(Cl)cc(Nc3cccc(Br)c3)n2)cc1 [Compound 40] | 100 | 100
25 | Fc1ccc(Nc2nc(N/N=C/c3ccc(OC(F)(F)F)cc3)nc(Cl)c2Cl)cc1C(F)(F)F [Compound 41] | 75 | 0
26 | Fc1ccc(Nc2nc(N/N=C/c3ccc(OC(F)(F)C(F)F)cc3)nc(Cl)c2Cl)cc1C(F)(F)F [Compound 42] | 38 | 38
27 | Clc1cccc(Nc2cc(Cl)nc(N/N=C/c3ccc(N4CCCCC4)cc3)n2)c1 [Compound 43] | 63 | 0
28 | Clc1cccc(Nc2cc(Cl)nc(N/N=C/c3ccc(N4CCCC4)cc3)n2)c1 [Compound 44] | 50 | 0
29 | FC(F)C(F)(F)Oc1cccc(/C=N/Nc2nc(Cl)cc(Nc3ccc(Cl)cc3)n2)c1 [Compound 45] | 63 | 63
30 | FC(F)(F)c1ccc(/C=N/Nc2nc(Cl)cc(Nc3ccc(Cl)cc3)n2)cc1 [Compound 46] | 100 | 100
31 | FC(F)C(F)(F)Oc1cccc(Nc2cc(Cl)nc(N/N=C/c3ccc(OC(F)(F)F)cc3)n2)c1 [Compound 47] | 100 | 100
32 | Fc1ccc(/C=N/Nc2nc(Cl)cc(Nc3cccc(OC(F)(F)C(F)F)c3)n2)cc1C(F)(F)F [Compound 48] | 88 | 25
33 | OC(c1cccc(Nc2cc(Cl)nc(N/N=C/c3ccc(OC(F)(F)F)cc3)n2)c1)C(F)(F)F (centres unmarked) [Compound 49] | 50 | 88
34 | OC(c1cccc(Nc2cc(Cl)nc(N/N=C/c3ccc(OC(F)(F)C(F)F)cc3)n2)c1)C(F)(F)F (centres unmarked) [Compound 50] | 0 | 63
35 | Fc1ccc(/C=N/Nc2nc(Cl)cc(Nc3cccc(Cl)c3)n2)cc1C(F)(F)F [Compound 51] | 50 | 75
36 | Fc1ccc(/C=N/Nc2nc(Cl)cc(Nc3cccc(Br)c3)n2)cc1C(F)(F)F [Compound 52] | 75 | 38
37 | CC(C)(C)C(=O)OC(c1cccc(Nc2cc(Cl)nc(N/N=C/c3ccc(OC(F)(F)F)cc3)n2)c1)C(F)(F)F (centres unmarked) [Compound 53] | 0 | 38
38 | FC(F)(F)Oc1ccc(/C=N/Nc2nc(Nc3cccc(C(F)(F)F)c3)cc(C(F)(F)F)n2)cc1 [Compound 54] | 100 | 100
39 | FC(F)(F)c1cccc(Nc2cc(C(F)(F)F)nc(N/N=C/c3cccc(Br)c3)n2)c1 [Compound 55] | 88 | 75
40 | Fc1ccc(Nc2cc(C(F)(F)F)nc(N/N=C/c3ccc(OC(F)(F)F)cc3)n2)cc1C(F)(F)F [Compound 56] | 100 | 100
41 | Fc1ccc(Nc2cc(C(F)(F)F)nc(N/N=C/c3cccc(Br)c3)n2)cc1C(F)(F)F [Compound 57] | 100 | 100
42 | CN(/N=C/c1ccc(OC(F)(F)C(F)F)cc1)c1nc(Cl)cc(Nc2ccc(F)c(C(F)(F)F)c2)n1 [Compound 58] | 100 | 100
43 | Fc1ccc(Nc2cc(Cl)nc(N/N=C/c3ccc(OC(F)(F)C(F)F)cc3)n2)cc1C(F)(F)F [Compound 59] | 100 | 100
